Assay [1] has as its system human neutrophils. The assay is described as follows: Calcium mobilization in freshly isolated human neutrophils. Type of assay: cell-based. The conditions noted are these: undigested chemokine or peptide (100 nM). Here is the method: (§1) Calcium Mobilization Assay. Cells were loaded for 1 hour with 2 μM indo-1/AM dye (Molecular Probes, Eugene, Oreg.) in culture medium, then washed with 10 ml PBS and resuspended at 10^6/ml in HBSS containing 1% FBS. Cytosolic calcium responses were determined using a Photon Technology International (Lawrenceville, N.J.) fluorimeter, with excitation at 350 nm and dual emission at 400 and 490 nm. Alternatively, cells were loaded with 5 μg/ml Fluo-4 AM dye (Molecular Probes, Eugene, Oreg.), then washed and analyzed on a Fluorometric Imaging Plate Reader 384 (FLIPR^384 Molecular Devices, Sunnyvale, Calif.), with 505 nm excitation and 530 nm emission.
(§2) Receptor signaling assay. For individual measurements, cells were loaded for 45 min at room temperature with 2 μM indo-1/AM (Invitrogen, Carlsbad Calif.) in culture medium, then washed with 10 ml PBS and resuspended at 10^6 cells/ml in HBSS containing 0.1% BSA. Cytosolic calcium levels were determined using a Photon Technology International fluorimeter (excitation at 350 nm, ratio of dual emission at 400 and 490 nm). For measuring calcium dose responses, cells were analyzed with a Fluorometric Imaging Plate Reader 384 (FLIPR^384) (Molecular Devices, Sunnyvale, Calif.). Cells were loaded for 1 hr at 37° C. with 5 μM fluo-4 in HBSS with 0.1% BSA, then washed, transferred to black-wall 96-well plates, and subsequently excited at 505 nm with emission recorded at 530 nm with a standard protocol provided by the manufacture. Cells were stimulated with agonists 20 s after the monitoring of fluorescence began. Data were analyzed and plotted in arbitrary units of fluorescence using Prism. To ensure that responses were specific to FPRL1, we utilized a selective small-molecule antagonist of human FPRL1, generated by ChemoCentryx, which was optimized from a high throughput compound library screening approach.

A further assay concerns human monocytes. The assay is described as follows: Chemotaxis of human monocytes. The class given is cell-based. As to conditions: undigested. The procedure: (§3) Chemotaxis assay. L1.2-CCR1 transfectants, THP-1 cells, human monocytes and human neutrophils were collected by centrifugation and resuspended in HBSS containing 0.1% BSA. Chemotaxis assays were performed in 96-well ChemoTx® microplates (Neuroprobe, Rockville, Md.) as follows. Chemokines were added to the lower wells (final volume 29 μL), and 20 μL of cell suspension (5×10^6 cells/mL) was added to the polycarbonate filter (3 μm pore size for neutrophils, 5 μm for other 3 cell types). After incubation at 37° C. in the presence of 5% CO2 for 1 hr (neutrophils), 90 min (monocytes) or 2 h (THP-1 and L1.2-CCR1), cells were removed from the upper surface of the filter by scraping. Cells that migrated into the lower chamber were quantified by using the CyQuant cell proliferation assay kit (Molecular Probes, Eugene, Oreg.) and analyzed with a Tecan (Durham, N.C.) fluorimeter (excitation at 480 nm, emission at 530 nm). Data were analyzed and plotted in arbitrary units of fluorescence using Prism (GraphPad Software, San Diego, Calif.).
(§4) Chemotaxis assays. L1.2-CCR1 and L1.2-FPRL1 transfectants, monocytes and neutrophils were collected by centrifugation and resuspended in HBSS with 0.1% BSA. The assays were performed in 96-well ChemoTx® microplates (Neuroprobe, Rockville, Md.). Chemokines were diluted in HBSS with 0.1% BSA and added to the lower wells (final volume 29 μL), then 20 μL of cell suspension (5×10^6 cells/mL for monocytes; 2.5×10^6 cells/mL for neutrophils) were added to the polycarbonate filters (5 μm pore size for monocytes and FPRL1 transfectants; 3 μm pore size for neutrophils). After incubation for 90 min (37° C., 100% humidity, 5% CO2), the filters were removed and the cells that migrated into the lower chamber were quantified by using the CyQuant cell proliferation assay kit (Molecular Probes, Oreg.).

Assay [2] deals with human neutrophils. The assay is described as follows: Chemotaxis of human neutrophils. The class given is cell-based. Here is the method: as §3, §4
Assay [3] relates to monocyte-derived dendritic cells. The assay is described as follows: Calcium mobilization in monocyte-derived dendritic cells. Type of assay: cell-based, human. The procedure:
Human monocytes were obtained from buffy coats purchased from the Stanford Blood Bank (Palo Alto, Calif.) by sedimentation on Ficoll-Paque (Amersham, Piscataway, N.J.) and selection with anti-CD14 magnetic beads (Miltenyi, Auburn, Calif.) according to the manufacturers' instructions. For generation of dendritic cells, monocytes were cultured for 6 days in RPMI-1640 medium containing 10% FBS (HyClone, Logan, Utah). On days 0, 2 and 4, GM-CSF and IL-4 (both purchased from R&D Systems, Minneapolis, Minn.) were added to the cultures at 1000 WHO unit/ml each. The cells were confirmed to be CD14^−CD1a^+ immature DC by FACS staining on day 6.
as §1
Immature and mature DC preparation. Immature DCs were derived by culturing CD14+ monocytes in T-175 cultured flasks at a density of 10^6 cells/ml in RPMI supplemented with 10% FBS. Recombinant human cytokines GM-CSF and IL-4 (final concentration 1000 and 500 U/ml, respectively) were added on day 0, 2, 4 and 6. Cells were harvested on day 6 as immature DCs and characterized for surface marker expression by flow cytometry. DC maturation was carried out by culturing day-6 immature DCs in RPMI-10% FBS supplemented with GM-CSF, IL-4 and 50 μg/ml polyIC (Sigma, St. Louis Mo.). After two more days of culture, cells were harvested as mature DCs and characterized by surface marker expression by flow cytometry.
as §2
For orientation: Calcium flux is commonly read through the fluorescence of an indicator in the cells.

For assay [4], the system named is murine bone marrow neutrophils. As to the kind of experiment: Calcium responses and chemotaxis in murine bone marrow neutrophils. The class given is cell-based, mouse. As to conditions: murine bone marrow neutrophils (not shown).

Where no end group is shown, it is not given here.

On to MLWRRKIGPQMTLSHAAG [SHAAGtide], for which, in the assay on human neutrophils [1], the calcium mobilization entry is reported as “equipotent to CCL23β Δ24”. In addition, the chemotaxis entry in the assay on human monocytes and in the assay on human neutrophils [2] was “vigorous chemotaxis” each time. In addition, the calcium response result was “much smaller calcium response” in assay [3] (immature DC, undigested) and “small amount of signaling activity” in assay [3] (mature DC). Also, the “calcium responses and chemotaxis” value in assay [4] was “able to induce calcium responses and chemotaxis”.

B1: CCL23β Δ24: truncated form of CCL23β lacking the 24-residue N-terminal domain, beginning with the SHAAGtide insertion (protein, listed as Homo sapiens)
chain: MLWRRKIGPQMTLSHAAGFHATSADCCISYTPRSIPCSLLESYFETNSECSKPGVIFLTKKGRRFCANPSDKQVQVCMRMLKLDTRIKTRKN
Consider B1, for which the calcium mobilization entry with human neutrophils [1] was “very robust calcium response”. For the same molecule, the chemotaxis entry in the assay with human monocytes and in the assay on human neutrophils [2] was “vigorous chemotaxis” each time. For the same molecule, the calcium response entry was “strong calcium response” in assay [3] (immature DC, undigested) and “diminished” in assay [3] (mature DC). Also, in assay [4], the “calcium responses and chemotaxis” value was “able to induce calcium responses and chemotaxis”.

Values taken from patent publication US7572600B2, “Enzymatic activities in chemokine-mediated inflammation” (Chemocentryx, Inc., priority 2004, dated 2009).
